In ChEMBL document CHEMBL4680090 (J Med Chem, 2016):
Converted amounts (≈) assume the structure as drawn.

Columns and labels:
human BCRP [1] = assay: in vitro; conditions: dog
physchem [2] = conditions: octanol/water, pH 7.4
[3] = molecular target: High affinity nerve growth factor receptor (Homo sapiens, UniProt P04629)
[4] = molecular target: BDNF/NT-3 growth factors receptor (Homo sapiens, UniProt Q16620)
in vitro = conditions: human, liver microsomes
[5] = human, hepatocytes, 4 h, 1 µM
[6] = molecular target: T1, Voltage-gated inwardly rectifying potassium channel KCNH2 (Homo sapiens, UniProt Q12809)
physchem [7] = conditions: buffer, pH 6.5
MDR1 (P-gp) = assay: in vitro; conditions: dog, MDCK-MDR1
human BCRP [8] = assay: in vitro; conditions: dog; remark: listed apart in the source
Aldehyde oxidase [9] = molecular target: T2, Aldehyde oxidase (Homo sapiens, UniProt Q06278); assay: Drug metabolism in human liver S9 fractions assessed as AO-mediated oxidation at 2-aminopyrimidyl ring at 10 uM incubated for 60 mins in absence of CYP cofactor NADP by HPLC-UV chromatography; assay type: ADME, subcellular; conditions: s9, 1 h
T2 sequence (Q06278 whole entry): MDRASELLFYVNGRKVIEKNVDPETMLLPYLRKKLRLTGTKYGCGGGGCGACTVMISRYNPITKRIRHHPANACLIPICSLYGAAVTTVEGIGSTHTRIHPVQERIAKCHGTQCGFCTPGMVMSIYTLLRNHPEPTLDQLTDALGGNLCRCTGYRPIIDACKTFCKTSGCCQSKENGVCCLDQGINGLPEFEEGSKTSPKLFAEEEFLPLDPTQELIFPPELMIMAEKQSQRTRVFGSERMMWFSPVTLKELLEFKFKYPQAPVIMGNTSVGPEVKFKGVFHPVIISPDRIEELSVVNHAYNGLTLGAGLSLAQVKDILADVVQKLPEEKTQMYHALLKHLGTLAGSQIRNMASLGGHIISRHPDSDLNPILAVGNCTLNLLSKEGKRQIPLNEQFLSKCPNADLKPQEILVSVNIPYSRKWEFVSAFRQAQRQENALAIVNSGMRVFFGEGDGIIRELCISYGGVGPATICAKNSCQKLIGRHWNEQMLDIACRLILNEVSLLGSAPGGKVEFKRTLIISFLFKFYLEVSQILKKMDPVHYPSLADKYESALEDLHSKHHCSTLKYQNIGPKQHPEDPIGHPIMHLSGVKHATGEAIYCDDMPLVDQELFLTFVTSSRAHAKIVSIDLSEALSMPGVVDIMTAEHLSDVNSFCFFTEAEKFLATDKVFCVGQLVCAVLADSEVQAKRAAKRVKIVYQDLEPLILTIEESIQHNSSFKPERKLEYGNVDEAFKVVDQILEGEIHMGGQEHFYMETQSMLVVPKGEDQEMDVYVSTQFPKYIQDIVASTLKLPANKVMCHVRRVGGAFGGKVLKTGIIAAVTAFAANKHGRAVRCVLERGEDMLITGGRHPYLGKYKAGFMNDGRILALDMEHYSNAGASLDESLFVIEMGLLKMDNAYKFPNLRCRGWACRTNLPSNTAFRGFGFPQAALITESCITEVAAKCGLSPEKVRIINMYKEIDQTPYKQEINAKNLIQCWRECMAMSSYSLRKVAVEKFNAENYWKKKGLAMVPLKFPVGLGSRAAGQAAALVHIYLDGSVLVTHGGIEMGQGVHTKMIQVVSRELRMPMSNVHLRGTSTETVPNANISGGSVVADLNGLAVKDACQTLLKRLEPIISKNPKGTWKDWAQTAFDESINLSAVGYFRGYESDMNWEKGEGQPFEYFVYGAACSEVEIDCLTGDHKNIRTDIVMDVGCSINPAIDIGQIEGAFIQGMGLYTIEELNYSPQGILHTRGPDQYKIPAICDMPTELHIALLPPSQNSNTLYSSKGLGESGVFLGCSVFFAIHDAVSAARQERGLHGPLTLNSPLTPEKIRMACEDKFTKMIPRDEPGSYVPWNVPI

Aldehyde oxidase [10] = molecular target: T2, Aldehyde oxidase; assay: Drug metabolism in human liver S9 fractions assessed as AO-mediated oxidation at fluoro-pyrrolopyridine motif at 10 uM incubated for 60 mins in absence of CYP cofactor NADP by HPLC-UV chromatography; assay type: ADME, subcellular; conditions: s9, 1 h
in vivo = conditions: rat, brain and plasma, po, 100 mg/kg
[11] = Volume of distribution in rat at 1 mg/kg, iv; assay type: ADME, organism-based; conditions: in vivo, read-out: Vdss
[12] = Half life in rat at 1 mg/kg, iv; assay type: ADME, organism-based; conditions: in vivo
Aldehyde oxidase [13] = molecular target: T2, Aldehyde oxidase; assay: Drug metabolism in human liver S9 fractions assessed as AO-mediated oxidation on central pyridine substituent at 10 uM incubated for 60 mins in absence of CYP cofactor NADP by HPLC-UV chromatography; assay type: ADME, subcellular; conditions: s9, 1 h
[14] = molecular target: T1, Voltage-gated inwardly rectifying potassium channel KCNH2; remark: listed apart in the source
[15] = Clearance in rat at 1 mg/kg, iv relative to hepatic blood flow; assay type: ADME, organism-based; conditions: in vivo
[16] = Clearance in rat at 1 mg/kg, iv; assay type: ADME, organism-based; conditions: in vivo
[17] = Oral bioavailability in rat at 3 mg/kg; assay type: ADME, organism-based; conditions: in vivo
[18] = Toxicity in rat assessed as drug tolerability at 400 mg/kg/day during 7 day toxicological study; assay type: organism-based; conditions: in vivo, 168 h
Aldehyde oxidase [19] = molecular target: T2, Aldehyde oxidase; assay: Drug metabolism in human liver S9 fractions assessed as AO-mediated oxidation on pyrrolopyrimidine-hinge binding group at 10 uM incubated for 60 mins in absence of CYP cofactor NADP by HPLC-UV chromatography; assay type: ADME, subcellular; conditions: s9, 1 h
Aldehyde oxidase [20] = molecular target: T2, Aldehyde oxidase; assay: Drug metabolism in human liver S9 fractions assessed as AO-mediated mono-oxidised metabolite formation at 10 uM incubated for 60 mins in absence of CYP cofactor NADP and in presence of 50 uM AO inhibitor menadione by HPLC-UV chromatography; assay type: ADME, subcellular; conditions: s9, 1 h
Aldehyde oxidase [21] = molecular target: T2, Aldehyde oxidase; assay: Drug metabolism in human liver S9 fractions assessed as AO-mediated mono-oxidised metabolite formation at 10 uM incubated for 60 mins in absence of CYP cofactor NADP by HPLC-UV chromatography; assay type: ADME, subcellular; conditions: s9, 1 h
Aldehyde oxidase [22] = molecular target: T2, Aldehyde oxidase; assay: Drug metabolism in human liver S9 fractions assessed as AO-mediated mono-oxidised metabolite formation at 10 uM incubated for 60 mins in absence of CYP cofactor NADP and in presence of 50 uM XO inhibitor allopurinol by HPLC-UV chromatography; assay type: ADME, subcellular; conditions: s9, 1 h
Aldehyde oxidase [23] = molecular target: T2, Aldehyde oxidase; assay: Drug metabolism in human liver S9 fractions assessed as AO-mediated amide hydrolysis at 10 uM incubated for 60 mins in absence of CYP cofactor NADP by HPLC-UV chromatography; assay type: ADME, subcellular; conditions: s9, 1 h
Aldehyde oxidase [24] = molecular target: T2, Aldehyde oxidase; assay: Drug metabolism in human liver S9 fractions assessed as AO-mediated oxidation on pyrrolopyrimidine-hinge binding group and the central pyridine substituent at 10 uM incubated for 60 mins in absence of CYP cofactor NADP by HPLC-UV chromatography; assay type: ADME, subcellular; conditions: s9, 1 h
Aldehyde oxidase [25] = molecular target: T2, Aldehyde oxidase; assay: Drug metabolism in human liver S9 fractions assessed as AO-mediated oxidation on amino-pyrrolopyrimidine hinge binding group and central pyridine substituent at 10 uM incubated for 60 mins in absence of CYP cofactor NADP by HPLC-UV chromatography; assay type: ADME, subcellular; conditions: s9, 1 h

T1 sequence (Q12809 whole entry): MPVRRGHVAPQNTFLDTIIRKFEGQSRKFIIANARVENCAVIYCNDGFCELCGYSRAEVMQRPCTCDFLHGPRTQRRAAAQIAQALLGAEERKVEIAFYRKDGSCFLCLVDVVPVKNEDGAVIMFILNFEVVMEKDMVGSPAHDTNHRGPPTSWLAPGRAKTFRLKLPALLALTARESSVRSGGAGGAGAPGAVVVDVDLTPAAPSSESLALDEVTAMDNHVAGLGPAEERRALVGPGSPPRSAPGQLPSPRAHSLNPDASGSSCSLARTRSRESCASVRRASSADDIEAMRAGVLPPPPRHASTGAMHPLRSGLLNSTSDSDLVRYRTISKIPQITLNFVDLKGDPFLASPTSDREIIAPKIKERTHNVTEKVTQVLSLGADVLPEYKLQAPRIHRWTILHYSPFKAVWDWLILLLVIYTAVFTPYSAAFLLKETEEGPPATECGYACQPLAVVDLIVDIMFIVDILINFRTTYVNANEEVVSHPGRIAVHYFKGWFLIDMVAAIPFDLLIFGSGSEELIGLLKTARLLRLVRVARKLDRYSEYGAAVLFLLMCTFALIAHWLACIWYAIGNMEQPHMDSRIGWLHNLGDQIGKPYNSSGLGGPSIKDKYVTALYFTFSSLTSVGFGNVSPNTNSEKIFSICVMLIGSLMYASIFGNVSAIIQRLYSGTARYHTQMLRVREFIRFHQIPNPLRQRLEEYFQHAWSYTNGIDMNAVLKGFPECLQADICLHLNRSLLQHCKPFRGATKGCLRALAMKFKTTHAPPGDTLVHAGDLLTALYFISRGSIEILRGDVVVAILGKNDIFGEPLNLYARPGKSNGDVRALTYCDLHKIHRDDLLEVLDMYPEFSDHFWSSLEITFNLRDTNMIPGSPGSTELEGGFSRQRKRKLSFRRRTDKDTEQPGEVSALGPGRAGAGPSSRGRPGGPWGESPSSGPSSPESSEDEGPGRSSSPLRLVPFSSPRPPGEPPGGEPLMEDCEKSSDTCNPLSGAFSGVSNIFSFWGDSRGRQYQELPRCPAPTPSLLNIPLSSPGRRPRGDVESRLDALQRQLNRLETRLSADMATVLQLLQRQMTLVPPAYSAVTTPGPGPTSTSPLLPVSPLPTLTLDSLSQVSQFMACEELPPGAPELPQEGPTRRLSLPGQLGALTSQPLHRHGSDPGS
Sequence of BDNF/NT-3 growth factors receptor (Q16620 whole entry): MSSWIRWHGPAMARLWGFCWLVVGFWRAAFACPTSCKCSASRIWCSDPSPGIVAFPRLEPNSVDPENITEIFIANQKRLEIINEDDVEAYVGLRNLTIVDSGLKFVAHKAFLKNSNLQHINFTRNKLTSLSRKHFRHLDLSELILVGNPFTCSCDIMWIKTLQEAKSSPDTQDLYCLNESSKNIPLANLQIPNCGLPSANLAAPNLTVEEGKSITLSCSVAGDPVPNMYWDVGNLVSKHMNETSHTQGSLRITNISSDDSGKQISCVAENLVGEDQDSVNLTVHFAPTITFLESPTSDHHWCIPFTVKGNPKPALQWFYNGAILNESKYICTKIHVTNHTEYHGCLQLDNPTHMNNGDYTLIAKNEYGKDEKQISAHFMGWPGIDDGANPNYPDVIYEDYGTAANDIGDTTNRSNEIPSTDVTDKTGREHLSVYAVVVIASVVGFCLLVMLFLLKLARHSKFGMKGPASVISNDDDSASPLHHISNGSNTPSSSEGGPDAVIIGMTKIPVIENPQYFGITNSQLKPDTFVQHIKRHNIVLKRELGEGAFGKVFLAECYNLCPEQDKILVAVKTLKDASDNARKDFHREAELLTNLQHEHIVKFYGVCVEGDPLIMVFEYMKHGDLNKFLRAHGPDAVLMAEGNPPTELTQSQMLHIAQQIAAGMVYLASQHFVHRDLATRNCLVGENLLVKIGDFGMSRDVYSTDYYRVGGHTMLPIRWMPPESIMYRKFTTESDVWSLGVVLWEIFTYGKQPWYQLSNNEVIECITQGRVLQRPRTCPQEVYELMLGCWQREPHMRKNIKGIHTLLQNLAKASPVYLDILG
Sequence of High affinity nerve growth factor receptor (P04629 whole entry): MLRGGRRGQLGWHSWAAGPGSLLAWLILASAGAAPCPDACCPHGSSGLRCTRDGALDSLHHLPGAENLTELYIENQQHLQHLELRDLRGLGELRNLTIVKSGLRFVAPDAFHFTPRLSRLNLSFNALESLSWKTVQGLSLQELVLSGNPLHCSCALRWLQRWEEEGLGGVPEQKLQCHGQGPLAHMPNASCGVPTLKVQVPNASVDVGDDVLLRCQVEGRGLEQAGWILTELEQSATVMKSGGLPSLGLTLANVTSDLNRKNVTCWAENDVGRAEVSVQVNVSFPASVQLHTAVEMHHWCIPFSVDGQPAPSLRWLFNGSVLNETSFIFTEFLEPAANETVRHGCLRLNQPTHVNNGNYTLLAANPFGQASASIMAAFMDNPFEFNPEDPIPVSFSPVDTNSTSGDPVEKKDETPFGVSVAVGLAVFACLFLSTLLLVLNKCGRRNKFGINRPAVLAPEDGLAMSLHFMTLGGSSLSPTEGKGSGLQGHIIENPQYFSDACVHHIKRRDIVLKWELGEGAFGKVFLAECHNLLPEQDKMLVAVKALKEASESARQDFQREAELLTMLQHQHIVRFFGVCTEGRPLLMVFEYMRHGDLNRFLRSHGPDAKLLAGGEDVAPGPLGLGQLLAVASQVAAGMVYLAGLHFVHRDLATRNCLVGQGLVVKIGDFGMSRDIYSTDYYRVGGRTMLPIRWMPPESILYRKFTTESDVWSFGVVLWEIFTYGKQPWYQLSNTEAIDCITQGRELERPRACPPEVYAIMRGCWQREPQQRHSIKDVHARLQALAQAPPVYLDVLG

Compound	Papp A→B (human BCRP [1])	logD (physchem [2])	IC50 [3]	IC50 [4]	microsomal CLint at 1 h, 1 µM (in vitro)	CLH(app) [5]	solubility (physchem [7])	efflux ratio (MDR1 (P-gp))	Ki [6]	also measured
CC(C)n1cc(C(=O)c2cc(NC(=O)Cc3ccc(Cl)cc3)ccn2)c2cncc(F)c21	–	–	–	–	–	–	–	–	–	Drug metabolism (Aldehyde oxidase [10]): Metabolite_Notdetected
CC(C)n1cc(C(=O)c2cncc(NC(=O)Cn3ccc(C4CC4)n3)c2)c2cncc(F)c21	15.4 ×10⁻⁶ cm/s	3.5	33 nM	7 nM	37 µL/min/mg	–	–	3.8	11300 nM	–
CC(C)(CO)n1cc(C(=O)c2cncc(NC(=O)Cc3ccc(Cl)cc3)c2)c2cnc(N)nc21	6.4 ×10⁻⁶ cm/s	3.7	–	–	< 8 µL/min/mg	11.2 µL/min	29 µM (≈ 13.9 µg/mL)	–	> 4300 nM	–
C[C@H](CO)n1cc(C(=O)c2ccnc(NC(=O)Cc3ccc(C#N)cc3)c2)c2cncnc21	–	–	–	–	–	–	–	–	–	Drug metabolism (Aldehyde oxidase [20]): Metabolite_Notdetected; Drug metabolism (Aldehyde oxidase [21]): Metabolite_Detected; Drug metabolism (Aldehyde oxidase [22]): Metabolite_Detected
CC(C)n1cc(C(=O)c2cncc(NC(=O)Cc3ccc(C#N)cc3)c2)c2c(N)ncnc21	12.1 ×10⁻⁶ cm/s	2.5	73 nM	8 nM	22 µL/min/mg	7 µL/min	4.4 µM (≈ 1.93 µg/mL)	27	9700 nM	Kp uu at 3 h (in vivo): 0.013; Drug metabolism (Aldehyde oxidase [23]): Metabolite_Detected; Drug metabolism (Aldehyde oxidase [24]): Metabolite_Detected; Drug metabolism (Aldehyde oxidase [25]): Metabolite_Detected

Continued, in another order:

Papp A→B (human BCRP [1])	logD (physchem [2])	IC50 [3]	IC50 [4]	microsomal CLint at 1 h, 1 µM (in vitro)	CLH(app) [5]	solubility (physchem [7])	efflux ratio (MDR1 (P-gp))	Compound	Ki [6]	also measured
9.9 ×10⁻⁶ cm/s	3.7	12 nM	4 nM	22 µL/min/mg	37 µL/min	17.5 µM (≈ 7.59 µg/mL)	–	CC(C)n1cc(C(=O)c2cncc(NC(=O)Cc3ccc(Cl)cc3)c2)c2cncnc21	5200 nM	–
18.4 ×10⁻⁶ cm/s	2.5	18 nM	4 nM	25 µL/min/mg	12 µL/min	–	5.8	CC(C)n1cc(C(=O)c2cncc(NC(=O)Cn3ccc(C4CC4)n3)c2)c2cncnc21	11900 nM	efflux ratio (human BCRP [8]): 38
5.2 ×10⁻⁶ cm/s	4.2	6 nM	2 nM	< 8 µL/min/mg	14 µL/min	12 µM (≈ 5.39 µg/mL)	–	CC(C)n1cc(C(=O)c2cncc(NC(=O)Cc3ccc(Cl)cc3)c2)c2cnc(N)nc21	16900 nM	Drug metabolism (Aldehyde oxidase [9]): Metabolite_Notdetected
15.8 ×10⁻⁶ cm/s	2.5	8 nM	5 nM	8 µL/min/mg	24 µL/min	30 µM (≈ 13.3 µg/mL)	–	CC(C)n1cc(C(=O)c2cncc(NC(=O)Cn3ccc(C4CC4)n3)c2)c2cnc(N)nc21	38900 nM	Drug metabolism (Aldehyde oxidase [9]): Metabolite_Notdetected
19.8 ×10⁻⁶ cm/s	2.7	17 nM	5 nM	35 µL/min/mg	23 µL/min	–	12.5	CC(C)n1cc(C(=O)c2cncc(NC(=O)Cn3ccc(C4CC4)n3)c2)c2cnccc21	1400 nM	–
11.3 ×10⁻⁶ cm/s	3	13 nM	7 nM	< 8 µL/min/mg	12 µL/min	7.5 µM (≈ 3.42 µg/mL)	–	CC(C)n1cc(C(=O)c2cncc(NC(=O)Cn3ccc(C(F)(F)F)n3)c2)c2cnccc21	1400 nM	Kp uu at 3 h (in vivo): 0.0083; Vd [11]: 1.5 L/kg; half-life [12]: 2.3 h; Drug metabolism (Aldehyde oxidase [13]): Metabolite_Detected; IC50 [14]: 1600 nM; CL [15]: 70%; clearance [16]: 50 mL/min/kg; bioavailability [17]: 16%; Activity [18]: Non-Toxic; Drug metabolism (Aldehyde oxidase [19]): Metabolite_Notdetected
24.1 ×10⁻⁶ cm/s	4.3	3 nM	–	23 µL/min/mg	–	13.6 µM (≈ 6.13 µg/mL)	10.9	CC(C)n1cc(C(=O)c2ccnc(NC(=O)Cc3ccc(F)cc3F)c2)c2c(N)ncnc21	8300 nM	efflux ratio (human BCRP [8]): 10.9
